{
  "source": "patent US20040044069A1",
  "about": "“Anti-virus compounds” (priority 2002, published 2004)",
  "key": {"herpesvirus 5": {"test_system": "herpesvirus 5", "assay": "herpesvirus 5 plaque reduction assay in MRC-5 cell monolayers", "assay_type": "cell-based, human herpesvirus 5 (HCMV)", "experimental": "Compound 1 was isolated from a unique Taiwanese plant (Taiwania cryptomerioides). See, e.g., Chang et al. (2000) Phytochemistry 55: 227. Antiviral drug ganciclovir (i.e., […], GCV) was purchased from Sigma. Both compounds were solubilized in 100% dimethyl sulfoxide (DMSO) at a concentration of 10 mM and stored at −20° C. The compounds were added to cultures such that the resulting concentrations of DMSO never exceed 0.05%, by volume. To reserve the stability of both compounds, Compound 1 and GCV were never stored in cell culture medium and made fresh for each experiment.\nHuman cell lines, HEL299 (ATCC CCL-137), MRC-5 (ATCC CCL-171), H1299 (CRL-5803), and ARPE19 (CRL-2302) were grown in respective culture media as indicated by the ATCC. All cell lines were screened periodically for mycoplasma contamination. Two HCMV lab strains, AD169 (VR-538) and the Town strain RC256 (the ATCC VR-2356) were purchased from ATCC. All stocks of HCMV were prepared as described in Spaete & Mocarski (1985) J Virol 54(3): 817-24.\nThe activities of Compound 1 and GCV against herpesvirus 5 were determined by a plaque reduction assay. All herpesvirus 5 plaque reduction assays were performed with monolayer cultures of MRC-5 cells in 6-well cluster dishes (Costar, Cambridge, Mass.). Briefly, one day before the experiment, MRC-5 cells were seeded into 6-well plates at a final concentration of 5×10^6 cells/well. On the day of virus inoculation, cells were treated with each test compound at a desired concentration for one hour before virus inoculation. The serially-diluted virus inoculums containing 10^5 to 10^0 PFU of herpesvirus […] were then added into cell cultures and incubated for additional 2 hours at 37° C. After the incubation, the cells were extensively washed with phosphate buffered saline (PBS) three times and then overlayed with the overlay medium containing 0.3% agar in the absence or presence of the test compounds. The cell cultures were maintained in the 37° C. incubator for two weeks. After removing the overlay agar, the cells were stained with crystal violet."}, "[1]": {"assay": "cytotoxic effect by MTS assay", "assay_type": "cell-based", "settings": "human, read-out: LC50 value (i.e., half lethal concentration)", "experimental": "The cytotoxic effect was also determined using the MTS (3-(4,5-dimethylthiazol-2-yl)-5-(3-carboxymethoxyphenyl)-2-(4-sulfophenyl)-2H-tetrazolium, inner salt) assay method described in Goodwin et al. (1995, J. Immunol. Methods. 179: 95)."}, "[2]": {"test_system": "herpesvirus 5 immediate early protein 2 (IE2 protein)", "assay": "expression of herpesvirus 5 IE2 and late proteins in infected HEL299 cells", "assay_type": "cell-based", "settings": "AD169, MOI 1.0, lysates day 0-7 post-infection", "experimental": "Cell-free virus stock, whose titer had been determined by a plaque reduction assay, was used. One day before the experiment, herpesvirus 5-permissive cells were seeded into 6-well plates at a final concentration of 5×10^6 cells/well. On the day of viral infection, the cells were incubated with or without a test compound (Compound 1 or GCV) for one hour. Subsequently, the cells were washed with PBS twice and serum-free medium were added during virus inoculation. The virus inocula were approximately at a multiplicity of infection (MOI) of 0.1 to 1 PFU/cell depending on which cell line was used. After two hours of incubation with viruses, cells were washed with PBS to remove unbound viruses. The cells were maintained at fresh media with or without test compounds at 37° C. with 5% CO2 incubator. The cell lysate samples were collected on day 0, 1, 3, 5, and 7 after virus infection.\nMore specifically, HEL299 cells were infected with herpesvirus 5 lab strain AD169 at an MOI of 1.0. Cell lysates were then collected after 2 hours of virus absorption on day 0, 1, 3, 5, and 7 post-infection. IE2 protein in virally infected cells was expressed rapidly on day 1 and increased dramatically on day 5. The expression of herpesvirus 5 late proteins was also detected on days 5 and 7 post-infection."}, "[3]": {"test_system": "herpesvirus 5 ie and pp150 transcripts", "assay": "reverse transcription (RT) assay of ie and pp150 transcripts in infected HEL299 cells", "assay_type": "cell-based, herpesvirus 5 lab strain AD169", "settings": "AD169, MOI 1.0, total RNA day 0-7 post-infection", "experimental": "To determine whether the absence of IE2 protein expression was due to Compound 1-induced abrogation at the transcriptional level, a reverse transcription (RT) assay was performed to measure the IE2 mRNA in the absence or presence of Compound 1. Basically, HEL299 cells were infected with herpesvirus 5 lab strain AD169 at a MOI of 1.0. Total RNAs were then extracted, collected after 2 hours of virus absorption on day 0, 1, 3, 5, and 7 post-infection. The expression of immediate early (ie) and late (pp150) gene products were determined by amplifying segments spanning at a common region shared by ie genes 1 and 2, and the 5′ end of pp150. As an internal control, a segment spanning β-actin was also amplified. […] The expression of pp150 transcripts was also detected after day 3."}},
  "note": "Read-outs that look alike come from different tables or passages of the source.",
  "data": [
    {"smiles": "Nc1nc2c(ncn2COC(CO)CO)c(=O)[nH]1", "note": "[GCV, 2-amino-1,9-dihydro-9-[(2-hydroxy-1-(hydroxymethyl)ethoxy)methyl]-6H-purin-6-one, reference compound]", "values": [
      {"measurement": "IC50", "setting": "herpesvirus 5; Human betaherpesvirus 5, MRC5, plaque reduction, MRC-5 cells, herpesvirus 5, read-out: IC50 value (i.e., 50% infectious concentration)", "result": 1, "unit": "µM"}
    ]},
    {"smiles": "O=C1OCc2c1cc1ccc3c(c1c2-c1ccc2c(c1)OCO2)OCO3", "note": "[Compound 1, 10-benzo[1,3]dioxol-5-yl-9H-furo[3′,4′:6,7]naphtho[1,2-d][1,3]dioxol-7-one]", "values": [
      {"measurement": "CC50", "setting": "[1]", "result": "> 16", "unit": "µM"},
      {"measurement": "IC50", "setting": "herpesvirus 5; Human betaherpesvirus 5, MRC5, read-out: IC50 value (i.e., 50% infectious concentration)", "result": "< 0.1", "unit": "µM"},
      {"measurement": "potency relative to GCV", "setting": "herpesvirus 5; IC50 compared with that of GCV", "result": "ten-fold more potent"},
      {"measurement": "SI (selectivity index=LC50/IC50)", "setting": "herpesvirus 5; LC50 (MTS)/IC50 (plaque reduction)", "result": "> 160"},
      {"measurement": "herpesvirus 5 growth in the presence of compound", "setting": "herpesvirus 5; plaque reduction, MRC-5 cells", "result": "inhibited"},
      {"measurement": "detection of IE2 and late viral proteins in infected cells", "setting": "[2]", "result": "none of these viral proteins was detected"},
      {"measurement": "detection of viral RNA (ie and pp150 transcripts)", "setting": "[3]", "result": "none of these viral RNA was detected"}
    ]}
  ]
}
